Read-outs that look alike come from different tables or passages of the source. Blank lines part the entries; values can stand above or below the molecule they belong to.
Assays:
chicken P-gp [1] = assay: Bidirectional transport of veterinary drugs across MDCK-chAbcb1 cell monolayer with berberine; details: for efflux ratio at 20 μM: chicken
Method: (§1) The MDCK-chAbcb1 cell line stably expressing chicken P-gp was previously established in our laboratory. Briefly, the full-length chicken cDNA was first cloned into the pcDNA3.1 vector and then transfected into MDCK cells using Lipofectamine 2000. Single cells stably expressing chicken P-gp were collected using the limited dilution method in medium containing hygromycin B (100 μg/mL) to obtain the MDCK-chAbcb1 cell line. The cell line was cultured in Dulbecco’s modified Eagle’s medium containing 10% fetal bovine serum, antibiotics (100 IU/mL penicillin and 80 IU/mL streptomycin), and 50 μg/mL hygromycin B and incubated at 37 °C in humidified air with 5% CO2.
Then, the samples collected from the receiving sides were subjected to an HPLC analysis. Of note, the transport periods for all of the drugs were determined by a preliminary experiment to avoid the saturation of P-gp.
The apparent permeability coefficients (Papp) and the efflux ratio (ER) were calculated as follows:(3) Papp=dQ/dt×1/(A×Co) (4) ER=Papp(B→A)/Papp(A→B)
(§2) In the third equation, A is the membrane surface area of the filter, C0 is the initial concentration of the test drug, dQ is the amount of transported drug, and dt is the time elapsed. In the fourth equation, Papp B→A and Papp A→B are the apparent permeability coefficients for the basolateral-to-apical and apical-to-basolateral directions, respectively.

[2] = parameters: method as in data published in a Chinese journal, Figure S3; details: broilers, berberine co-administration; ref data published in a Chinese journal, Figure S3; cited from earlier work
[3] = Bidirectional transport of berberine across MDCK parental cell monolayer; type: in vitro ADME; details: dog
Abcb1 mRNA = Abcb1 mRNA expression in the ileum of broilers by real-time RT-PCR after oral berberine; type: in vivo; details: berberine 40 and 80 mg/kg, 24 h, vs control, p < 0.01
Method: (§3) Arbor Acres broilers (one day old) were purchased from the Liuhe Hatchery (Nanjing, Jiangsu, China). The broilers were provided a basal diet and water ad libitum and managed under the recommended humidity and temperature for 6 weeks. Then, 18 healthy broilers with similar body weight (b.w.) were randomly divided into three groups (6 broilers/group). Group I was administered phosphate-buffered saline for 24 h (control).
GAPDH was used as an internal control.

chicken intestinal P-gp = assay: In situ single-pass intestinal perfusion of Rho123 in berberine-treated broilers; type: in vivo
Method: as §3
The broilers were divided into three experimental groups and drugs were administered as described above. Broilers were fasted for 12 h with free access to water before the perfusion experiment. Then, the animals were anesthetized with urethane intraperitoneally (0.5 mL/kg b.w.) and an incision was made through the abdominal cavity. A 10-cm intestinal segment was carefully exposed to air for intestinal perfusion. Two polyethylene cannulas were inserted through small slits at the proximal and distal ends (inlet and outlet). Initially, the intestinal segment was gently flushed with Krebs-Ringer buffer for about 30 min until a clear effluent flowed out. Then, Rho123 (1.5 ng/mL) solution was introduced into the loop at a constant flow rate of 0.2 mL/min. The intestinal fluid was collected in bottles at the outlet of the intestine at intervals of 10 min for up to 100 min. The lengths and internal radii of the intestinal segments were measured after all of the chickens were killed by cervical dislocation.
All samples were weighed and centrifuged for 10 min at 4500 rpm. The supernatants were filtered using a 0.22-μm filter (Millipore, Burlington, MA, USA) and samples were collected for analysis by high-performance liquid chromatography (HPLC).

[4] = tested on: chicken xenobiotic receptor (CXR) mRNA; assay: CXR mRNA expression in the ileum of broilers by real-time RT-PCR after oral berberine; type: in vivo; details: berberine 40 and 80 mg/kg, 24 h, vs control, p < 0.01
Method: Arbor Acres broilers (one day old) were purchased from the Liuhe Hatchery (Nanjing, Jiangsu, China). The broilers were provided a basal diet and water ad libitum and managed under the recommended humidity and temperature for 6 weeks. Then, 18 healthy broilers with similar body weight (b.w.) were randomly divided into three groups (6 broilers/group). Group I was administered phosphate-buffered saline for 24 h (control). […] Chicken treatment procedures were approved by the Science and Technology Agency of Jiangsu Province (approval no. 2017-0007, approval date: 15th, February, 2017) and performed in accordance with the guidelines of the Science and Technology Agency of Jiangsu Province and Nanjing Agricultural University. Broilers were divided into three experimental groups and drugs were administered as described above. At the end of experiments, animals were killed by decapitation. The ileum samples were collected immediately and stored at −80 °C for further tests. […] RNAs were quantified using a photometer (Eppendorf, Hamburg, Germany) at 260/280 nm. […] Chicken Abcb1 and chicken xenobiotic receptor (CXR) mRNAs were quantified using SYBR Green Realtime PCR Master Mix (Toyobo, Japan) on a real-time PCR detection system (Bio-Rad Laboratories, Hercules, CA, USA). […] Relative levels of Abcb1 and CXR were analyzed using the 2^−ΔΔCt method.

chicken P-gp [5] = assay: Bidirectional transport of berberine across MDCK-chAbcb1 cell monolayer; type: in vitro ADME; details: for efflux ratio at 4 h, 100 μM: chicken
chicken P-gp [6] = assay: Bidirectional transport of Rho123 across MDCK-chAbcb1 cell monolayer (P-gp inhibition); type: cell-based; details: for Papp A→B at 80 min, 4 mM: read-out: Papp AP→BL of Rho123
Method: as §1
The samples were collected at 20, 40, 60, and 80 min from the receiving sides and analyzed by HPLC.
as §2
The inhibition rate was calculated using the following equation:(5) Inhibition rate=ERcontrol−ERtreatment/ERcontrol

[7] = chicken, control of 8 h series, no berberine

ER of sulfadiazine (chicken P-gp [1]; berberine 20 μM, 2 h pre-incubation, sulfadiazine 20 μM): did not obviously alter the ER
efflux ratio at 4 h, 100 μM [3]: 1.24
efflux ratio at 4 h, 100 μM ([3]; with verapamil 100 μM): 1.21
Transport ratio (r) of berberine (chicken P-gp [5]; MDCK-chAbcb1 cells, without verapamil, berberine 100 μM, 4 h): 4.2
efflux ratio at 4 h, 100 μM (chicken P-gp [5]): 4.2
efflux ratio at 4 h, 100 μM (chicken P-gp [5]; with verapamil 100 μM): 1.13
Inhibition rate (of Rho123 efflux ratio) (chicken P-gp [6]; berberine 5 μM, 2 h): 41.48%
Inhibition rate (of Rho123 efflux ratio) (chicken P-gp [6]; berberine 5 μM, 8 h): 39.64%
Inhibition rate (of Rho123 efflux ratio) (chicken P-gp [6]; berberine 20 μM, 2 h): 53.3%
Inhibition rate (of Rho123 efflux ratio) (chicken P-gp [6]; berberine 20 μM, 2 h, listed as Berberine): 53.30%
Inhibition rate (of Rho123 efflux ratio) (chicken P-gp [6]; berberine 20 μM, 8 h): 62.57%
Inhibition rate (of Rho123 efflux ratio) (chicken P-gp [6]; berberine 40 μM, 2 h): 73.6%
Inhibition rate (of Rho123 efflux ratio) (chicken P-gp [6]; berberine 40 μM, 2 h, listed as Berberine): 73.63%
Inhibition rate (of Rho123 efflux ratio) (chicken P-gp [6]; berberine 40 μM, 8 h): 68.23%
Structure (SMILES): COc1ccc2cc3[n+](cc2c1OC)CCc1cc2c(cc1-3)OCO2 [berberine]
Bioavailability of orally administered enrofloxacin [2]: increases the bioavailability
Abcb1 mRNA level in the ileum (Abcb1 mRNA): significantly down-regulated
Rho123 concentrations in the perfusion fluid (chicken intestinal P-gp; berberine 40 and 80 mg/kg, 24 h, vs control, p < 0.05): obvious decrease
CXR mRNA level in the ileum [4]: significantly down-regulated

efflux ratio at 20 μM (chicken P-gp [1]): 4.26
Structure (SMILES): CC[C@H]1OC(=O)C[C@@H](O)[C@H](C)[C@@H](O[C@@H]2O[C@H](C)[C@@H](O)[C@H](N(C)C)[C@H]2O)[C@@H](CCN2C[C@H](C)C[C@H](C)C2)C[C@@H](C)C(=O)/C=C/C(C)=C/[C@@H]1CO[C@@H]1O[C@H](C)[C@@H](O)[C@@H](OC)[C@H]1OC [tilmicosin]

efflux ratio at 20 μM (chicken P-gp [1]): 2.77
Structure (SMILES): Nc1ccc(S(=O)(=O)Nc2ncccn2)cc1 [sulfadiazine]

Papp at 100 min, 1.5 ng/mL (chicken intestinal P-gp; Arbor Acres, chicken, other: in situ single-pass intestinal perfusion): 123 ± 42 ×10⁻⁶ cm/s
Ka of Rho123 (chicken intestinal P-gp; control (no berberine), in situ perfusion, n = 6): 1.12 ± 0.28 min⁻¹
efflux ratio at 2 h, 4 mM (chicken P-gp [6]; chicken, control of 2 h series, no berberine, read-out: Efflux ratio of Rho123): 7.28 ± 0.98
Papp A→B at 80 min, 4 mM (chicken P-gp [6]; chicken, control of 2 h series, no berberine): 8.86 ± 1.38 ×10⁻⁶ cm/s
Papp B→A at 2 h, 4 mM (chicken P-gp [6]; chicken, control of 2 h series, no berberine, read-out: Papp BL→AP of Rho123): 62.9 ± 7.69 ×10⁻⁶ cm/s
efflux ratio at 8 h, 4 mM (chicken P-gp [6]; [7]): 7.24 ± 0.49
Papp A→B at 80 min, 4 mM (chicken P-gp [6]; [7]): 8.62 ± 1.24 ×10⁻⁶ cm/s
Papp B→A at 8 h, 4 mM (chicken P-gp [6]; chicken, control of 8 h series, no berberine, read-out: Papp BL→AP of Rho123): 60.1 ± 5.13 ×10⁻⁶ cm/s
efflux ratio at 2 h, 4 mM (chicken P-gp [6]; chicken, control of verapamil series, verapamil 0 µM, read-out: Efflux Ratio of rhodamine 123): 6.24 ± 0.7
Papp A→B at 2 h, 4 mM (chicken P-gp [6]; chicken, control of verapamil series, verapamil 0 µM, read-out: Papp AP→BL of rhodamine 123): 8.04 ± 0.76 ×10⁻⁶ cm/s
Papp B→A at 2 h, 4 mM (chicken P-gp [6]; chicken, control of verapamil series, verapamil 0 µM, read-out: Papp BL→AP of rhodamine 123): 54.4 ± 4.34 ×10⁻⁶ cm/s
Structure (SMILES): COC(=O)c1ccccc1-c1c2ccc(=N)cc-2oc2cc(N)ccc12 [Rho123, rhodamine 123]

efflux ratio at 20 μM (chicken P-gp [1]): 2.01
Structure (SMILES): CCN1CCN(c2cc3c(cc2F)c(=O)c(C(=O)O)cn3C2CC2)CC1 [enrofloxacin]

From paper PMC6515058 (International Journal of Molecular Sciences, 2019)
